Measured values taken from patent US4885239A, “Rapid differentiation of bacteria using polyether antibiotics” (Eastman Kodak Company, priority 1986, dated 1989).

Key:
P. vulgaris = test: dye formation from RIND VII in presence of calimycin, P. vulgaris; assay type: cell-based, Proteus vulgaris (ATCC 13315); set-up: key: 0: no dye formation; +/-: faint dye formation; 1+: light dye formation; 2+: moderate dye formation; 3+: strong dye formation; 4+: very strong dye formation; settings: calimycin 10^-3 molar, calcium chloride
Description: (§1) gram-negative bacteria Enterobacter cloacae (ATCC 23355), Escherichia coli (ATCC 25922), Proteus vulgaris (ATCC 13315), Klebsiella pneumoniae (ATCC 13883) and Pseudomonas aeruginosa (ATCC 27853), and gram-positive bacteria Staphylococcus aureus (ATCC 25923) and Streptococcus pyogenes (ATCC 19615), and brain heart infusion (BHI) broth from Difco Laboratories (Detroit, Mich.),
Bacterial suspensions were prepared by growing the cells in BHI to stationary phase overnight at 37° C. P. aeruginosa was grown with agitation. […]
TERGITOL 7 anionic surfactant was used to differentiate viable bacteria according to the prior art method. […] The amount of dye formed was then determined visually and graded as follows: 0 indicates no dye formation, +/- indicates faint dye formation, 1+ indicates light dye formation, 2+ indicates moderate dye formation, 3+ indicates strong dye formation, and 4+ indicates very strong dye formation.
Calimycin, a polyether antibiotic, was similarly used with RIND VII in the differentiation of bacteria. Assays were performed as described above, except that 25 μl of 1 molar calcium chloride solution was added to each test solution and the P. aeruginosa response was measured in the presence of 10% yeast extract as the carbon source instead of glucose. […]

[1] = tested on: viable gram-positive and gram-negative bacteria; test: differentiation of viable gram-positive and gram-negative bacteria (outcome in words); assay type: cell-based; settings: RIND VII; calimycin 10^-3 molar
Description: as §1
(§2) Bacterial suspensions were prepared by growing the cells in BHI to stationary phase overnight at 37° C. P. aeruginosa was grown with agitation. About 40 ml of overnight cultures were centrifuged, decanted and washed once with 0.05 molar potassium phosphate buffer or 0.05 molar N-2-hydroxyethylpiperazine-N'-2-ethanesulfonic acid (HEPES) buffer, pH 7.8, and resuspended in buffer.
TERGITOL 7 anionic surfactant was used to differentiate viable bacteria according to the prior art method. Various concentrations of TERGITOL 7 surfactant were mixed with a 10% glucose solution (50 μl), 3-(4,5-dimethyl-2-thiazolyl)-2,5-diphenyl-2N-tetrazolium bromide (MTT) in methanol (25 μl at 5 mg/ml) or a RIND VII dispersion (1.5 ml) and phenazine methosulfate ETA (25 μl at 3 mg/ml methanol). The volume of each test solution was brought to 3 ml with potassium phosphate buffer. A cell suspension (100 μl at about 10^8 cells/ml) was then added. The solutions were incubated at 37° C. for 15 and 30 minutes in the presence of either E. coli, a gram (-) bacterium, or S. aureus, a gram (+) bacterium. The amount of dye formed was then determined visually and graded as follows: 0 indicates no dye formation, +/- indicates faint dye formation, 1+ indicates light dye formation, 2+ indicates moderate dye formation, 3+ indicates strong dye formation, and 4+ indicates very strong dye formation.
Calimycin, a polyether antibiotic, was similarly used with RIND VII in the differentiation of bacteria. Assays were performed as described above, except that 25 μl of 1 molar calcium chloride solution was added to each test solution and the P. aeruginosa response was measured in the presence of 10% yeast extract as the carbon source instead of glucose. The final concentration of calimycin in each test was 10^-3 molar.
The test solutions were prepared by adding the following, in order: 1.2 ml HEPES, 50 μl glucose solution, 1.5 ml RIND VII dispersion, 100 μl antibiotic solution, 100 μl cell suspension and 25 μl ETA solution. Cell control solutions contained all reagents except antibiotics. Background Controls consisted of both buffer and solution controls. The buffer control contained all reagents except antibiotics and cells. The solution control contained all reagents except cells.
Optical density readings (OD) were made at 635 nm at 0 minutes and after incubation at 37° C. for 30 minutes for all solutions, and the change (ΔOD) was determined. Table V below lists the results expressed as corrected percent inhibition of the reduction of RIND VII. The corrected percent inhibition was calculated by dividing the difference between ΔOD obtained from a Control test without antibiotic and the ΔOD of the test, by the ΔOD of the Control without antibiotic. All readings were corrected by subtracting readings of the appropriate background control.
Relative fluorescence was measured using a standard spectrophotometer modified to read at excitation of 540 nm and emission of 620 nm. The change (Δ) in relative fluorescence was determined after 30 minutes at 37° C. for several concentration levels of antibiotic.
Optical density measurements were obtained at 540 nm using a standard spectrophotometer and the change in optical density (ΔOD) was determined after 30 minutes at 37° C. The resulting data are shown in Table VII below for several concentrations of antibiotic. It is clear from the data that the composition of this example was useful for differentiating bacteria. […]

E. coli (gram -) = test: change in optical density with tetrazolium salt MTT (Example 5), E. coli; assay type: cell-based, Escherichia coli (ATCC 25922); settings: 540 nm, 37° C., without antibiotic 0.643
Description: as §1, §2
The reducible compound solution was prepared with 3-(4,5-dimethyl-2-thiazolyl)-2,5-diphenyl-2H-tetrazolium bromide (MTT) (200 μl of 5 mg/ml methanol), 200 μl glucose solution (10% in water), 200 μl trimethyl-1,4-benzoquinone ETA (1.5 mg/ml methanol) and 12 ml of HEPES buffer (0.05 molar, pH 7.8).
Test solutions were prepared with the following: 50 μl HEPES buffer, 50 μl polyether antibiotic A23187 (free acid, 0.01 molar in methanol), 10 μl calcium chloride (1 molar) (serial dilutions of buffer and antibiotic were performed to obtain various antibiotic concentrations), 50 μl of the appropriate cell suspension, E. coli (about 10^8 cells/ml) or S. aureus (about 10^8 cells/ml), and 200 μl of the MTT solution. Control solutions were prepared as described in previous Examples.
Optical density measurements were obtained at 540 nm using a standard spectrophotometer and the change in optical density (ΔOD) was determined after 30 minutes at 37° C. The resulting data are shown in Table VII below for several concentrations of antibiotic. It is clear from the data that the composition of this example was useful for differentiating bacteria.

CNc1ccc2oc(C[C@H]3O[C@@]4(CC[C@H]3C)O[C@H]([C@H](C)C(=O)c3ccc[nH]3)[C@H](C)C[C@H]4C)nc2c1C(=O)O [calimycin, Calimycin]
dye formation (P. vulgaris; 15 Minutes): 4+ | dye formation (P. vulgaris; 30 Minutes): 4+ | inhibition of the reduction of the reducible compounds by viable gram-positive bacteria [1]: selectively and substantially inhibits the reduction of the reducible compounds | reductive capability of the viable gram-negative bacteria [1]: not inhibited | Δ OD after 30 Min. (E. coli (gram -); antibiotic 1 × 10^-4 molar): 0.503 | Δ OD after 30 Min. (E. coli (gram -); antibiotic 2 × 10^-4 molar): 0.529 | Δ OD after 30 Min. (E. coli (gram -); antibiotic 4 × 10^-4 molar): 0.512 | Δ OD after 30 Min. (E. coli (gram -); antibiotic 8 × 10^-4 molar): 0.413
